Measured values as given in patent US7226923B2, “Phthalazinone derivatives” (Hoffman-La Roche Inc., priority 2004, dated 2007).
pIC50: −log10 of the molar value.

What was measured:
Aurora A = molecular target: T1, Aurora A (Homo sapiens, UniProt O14965); experiment: IC50 determination for inhibitors of Aurora A (96 MTP-ELISA); type: biochemical; settings: His4-tagged full-length Aurora A 250 ng/ml, PKB-GSK2 200 nM, ATP 4 μM, 90 min at room temperature, read-out: IC50 Aurora A kinase inhibition
T1 construct: C-terminally Histidine4 (His4)-tagged Aurora A full-length protein
T1 sequence (O14965 1-403): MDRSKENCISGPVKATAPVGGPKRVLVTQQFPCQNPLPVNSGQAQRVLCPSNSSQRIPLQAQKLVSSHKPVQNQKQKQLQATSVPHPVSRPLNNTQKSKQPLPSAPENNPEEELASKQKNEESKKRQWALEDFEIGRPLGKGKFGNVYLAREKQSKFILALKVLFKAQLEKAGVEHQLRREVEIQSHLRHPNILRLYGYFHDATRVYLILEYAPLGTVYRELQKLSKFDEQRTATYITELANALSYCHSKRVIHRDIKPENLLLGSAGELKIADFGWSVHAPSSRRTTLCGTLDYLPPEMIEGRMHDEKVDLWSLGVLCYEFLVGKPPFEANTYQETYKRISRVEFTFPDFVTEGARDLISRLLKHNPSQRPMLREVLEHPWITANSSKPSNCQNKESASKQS

HCT 116 cells = experiment: CellTiter-Glo assay in HCT 116 cells; type: cell-based, human; settings: Homo sapiens, HCT-116, 120 h, 5 days incubation, 30 μM to 0.0015 μM
In short: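 Cells seeded at 1000/well in RPMI 1640 with 5% FCS, grown 24 h at 37 °C, then treated with 10 concentrations from 30 μM to 0.0015 μM (1:3 dilutions). After 5 days viability was read as ATP-based luminescence (CellTiter-Glo) following 30 min room-temperature equilibration and lysis.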

Compound	pIC50 (Aurora A)	pIC50 (HCT 116 cells)
Cc1cc(Nc2nn(-c3ccccc3)c(=O)c3ccc(N)cc23)n[nH]1 [Example Z-1, 6-Amino-4-(5-methyl-1H-pyrazol-3-ylamino)-2-phenyl-2H-phthalazin-1-one]	6.00 to 7.00	5.00 to 7.00
Cc1cc(Nc2nn(-c3ccc(S(=O)(=O)C(C)(C)C)cc3)c(=O)c3ccccc23)n[nH]1 [Example ZA-1, 2-[4-(2-Methyl-propane-2-sulfonyl)-phenyl]-4-(5-methyl-1H-pyrazol-3-ylamino)-2H-phthalazin-1-one]	7.00 to 9.00	5.00 to 7.00
Cc1cc(Nc2nn(-c3ccc(C(C)(C)C)cc3)c(=O)c3cc(NC=O)ccc23)[nH]n1 [Example ZB-1, N-[3-(4-tert-Butyl-phenyl)-1-(5-methyl-2H-pyrazol-3-ylamino)-4-oxo-3,4-dihydro-phthalazin-6-yl]-formamide]	7.00 to 9.00	5.00 to 7.00
Cc1cc(Nc2nn(-c3ccc(C(C)(C)C)cc3)c(=O)c3cc([N+](=O)[O-])ccc23)[nH]n1 [Example ZB-3, 2-(4-tert-Butyl-phenyl)-4-(5-methyl-2H-pyrazol-3-ylamino)-7-nitro-2H-phthalazin-1-one]	7.00 to 9.00	5.00 to 7.00
